Results on five compounds are retold here after ChEMBL document CHEMBL1614632, “Trend analysis of a database of intravenous pharmacokinetic parameters in humans for 670 drug compounds” (Drug Metab Dispos, 2008).

For data set [1] the following is noted: human, in vivo, iv.
Data set [2] in a line: clinical. To be noted: human, in vivo, iv, Vdss.
A short description of data set [3]: clinical. The settings on record: human, in vivo, iv.
Data set [4] can be described thus: clinical. To be noted: human, in vivo, iv, t1/2.
The conditions of data set [5]: human, in vivo, iv. This is another data set of the same source.
For data set [6] the following is noted: human, in vivo, iv. This is another data set of the same source.
For data set [7] the following is noted: human, in vivo, iv. The source holds these as a separate data set.
For data set [8] the following is noted: human, in vivo, iv. This is another data set of the same source.
A short description of data set [9]: clinical. The settings on record: human, in vivo, iv. The source holds these as a separate data set.

In turn, `O=C(CCCN1CCC(O)(c2ccc(Cl)cc2)CC1)c1ccc(F)cc1` [HALOPERIDOL] yielded a fu in [1] of 0.08. In the data set “clinical [2]”, the Vd was determined as 17 L/kg. This compound showed an MRT in the data set “clinical [3]” of 36 h. The same compound showed a half-life in the data set “clinical [4]” of 35 h.
The compound `COC(=O)C(c1ccccc1)C1CCCCN1` (configuration not stated) [METHYLPHENIDATE] showed a volume of distribution (Vdss) in [5] of 2.2 L/kg. The same compound showed a CL in [6] of 0.55 mL/min/kg. Also, in data set [7], the MRT is on record as 4.5 h. The t1/2 in data set [8] amounted to 4.8 h. The compound further gave a fraction unbound in the data set “clinical [9]” of 0.85.
Consider CARBOPLATIN, for which the Vdss in data set [5] is 0.26 L/kg. Also, the CL in data set [6] was found to be 1.5 mL/min/kg. Besides, the fu in data set [1] is listed as 1. Besides, the MRT in [7] is listed as 3 h. Further, the t1/2 in data set [8] was found to be 2 h.
GADOVERSETAMIDE: the Vdss in data set [5] was determined as 0.16 L/kg. Further, in data set [6], the CL came to 1.2 mL/min/kg. The compound also came in with a fu in data set [1] of 1. The MRT in data set [7] was 2.2 h. Moreover, in [8], the t1/2 came out at 1.7 h.
GENTAMICIN displayed a fu in [1] of 1. In addition, in data set [7], the MRT was 5.5 h. The compound further gave a t1/2 in [8] of 4.7 h.

As usually defined, the Vd is a proportionality between amount in the body and measured concentration, not a real space. The term MRT denotes a mean duration of stay, worked out from the concentration-time curve. The half-life is how long it takes for the measured level to halve. Lower therefore signals rapid decline. By Vdss is commonly meant a proportionality between amount in the body and measured concentration, not a real space. Read a high Vdss as extensive tissue distribution. As usually defined, the fraction unbound is the share of the substance not bound to proteins or other matrix.
